Assay results taken from US7892755B2, “Screening method” (Takeda Pharmaceutical Company Limited, priority 2004, dated 2011).

Experiments:
Format in all cases: cell-based
control CHO-K1 cells = test: Changes in intracellular calcium levels on FLIPR, control CHO-K1 cells with only expression vector pAKKO-111H
Procedure: (§1) The CHO-K1 cell line (purchased from ATCC) was incubated in HAM F-12 medium (Invitrogen) supplemented with 10% fetal calf serum, unless otherwise indicated. On the day before transfection, the cells were inoculated at 4.5×10^5/10 cm^2 and incubated at 37° C. for 15 hours or more in a CO2 incubator adjusted to 5% CO2 concentration. Using Lipofectamine reagent (Invitrogen), transfection was performed according to modifications of the procedure attached to the reagent. When a 6-well plate was used as the incubator, the transfection was performed as follows. Two tubes each having a 1.5 ml volume were prepared and 100 μl each of Opti-MEM medium (Invitrogen) was dispensed in each tube. Next, 1 μg of the GPR35 expression vector obtained in REFERENCE EXAMPLE 1 and 0.5 μg of Gα15 expression vector (Guthrie cDNA Resource Center) were incorporated into one tube and in another tube, 6 μl of Lipofectamine reagent was charged, which were then mixed together. The mixture was settled for 20 minutes at room temperature. To the solution, 800 μl of Opti-MEM medium was added and the resulting solution mixture for transfection was added to the CHO-K1 cells, which had been previously washed with Opti-MEM medium. The cells were then incubated in a CO2 incubator for 6 hours. After the incubation, the cells were rinsed with PBS (Invitrogen), then detached by 0.05% trypsin-EDTA solution (Invitrogen) and recovered by centrifugal operation. The cells obtained were counted and diluted to 5×10^4 cells per 100 μl of the medium. The dilution was dispensed to a black walled 96-well plate (Costar) at 100 μl per well, followed by incubation overnight in a CO2 incubator. Various test samples were added to the CHO-K1 cells, in which the receptor was transiently expressed, by the transfection procedure described above, whereby changes in intracellular calcium levels were assayed on a FLIPR (Molecular Device).
(§2) To assay the changes in intracellular calcium levels on FLIPR, the following pretreatment was made. First, an assay buffer was prepared to add fluorescence dye Fluo-3AM (DOJIN) to the cells, or to wash the cells immediately before the FLIPR assay. A solution was prepared by adding 20 ml of 1M HEPES (pH 7.4) (DOJIN) to 1000 ml of HBSS (Invitrogen) (hereinafter HBSS/HEPES solution). To the solution, there was added 10 ml of a solution obtained by dissolving 710 mg of Probenecid (Sigma) in 5 ml of 1N NaOH and further adding 5 ml of HBSS/HEPES solution thereto and mixing them. The resulting solution was used as an assay buffer. Next, 50 μg of Fluo-3AM was dissolved in 21 μl of DMSO (DOJIN), and an equal volume of 20% pluronic acid (Molecular Probes) was added to the solution. After mixing them, the mixture was added to 10.6 ml of an assay buffer supplemented with 105 μl of fetal calf serum to give a fluorescence dye solution. After the medium for the transfected CHO-K1 cells was removed, the fluorescence dye solution was immediately dispensed at 100 μl each per well and incubation was carried out in a CO2 incubator for an hour to take up the fluorescence dye into the cells. The incubated cells were washed with the assay buffer described above and set on FLIPR. Test samples to be added to the receptor-expressed CHO-K1 cells were prepared using the assay buffer and simultaneously set on FLIPR.
After the pretreatment described above was made, changes in intracellular calcium levels by the addition of various test samples were assayed on FLIPR. […]

GPR35 [1] = target: T1, GPR35 (Homo sapiens, UniProt Q9HC97, S294R); test: Changes in intracellular calcium levels on FLIPR, CHO-K1 cells transiently co-expressing GPR35 and Gα15; parameters: The resulting fragment (ca. 1 kb) was introduced into vector pAKKO-111; expressed in transfected cells; host or cells: CHO-K1 (ATCC), transient transfection; settings: Fluo-3AM, 0.3-10 μM shown for DNQX and ellagic acid (FIG. 1, 2)
T1 sequence (Q9HC97 whole entry S294R, the tested form may be a part): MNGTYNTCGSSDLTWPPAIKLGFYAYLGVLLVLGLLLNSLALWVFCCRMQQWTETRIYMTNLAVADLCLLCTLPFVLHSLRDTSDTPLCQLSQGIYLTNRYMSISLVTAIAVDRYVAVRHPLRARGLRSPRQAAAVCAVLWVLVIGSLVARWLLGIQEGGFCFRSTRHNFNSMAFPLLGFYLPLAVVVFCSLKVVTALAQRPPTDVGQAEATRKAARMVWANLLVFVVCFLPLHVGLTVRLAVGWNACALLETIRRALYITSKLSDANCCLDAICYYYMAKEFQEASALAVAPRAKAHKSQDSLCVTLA
Procedure: as §1, §2
After the pretreatment described above was made, changes in intracellular calcium levels by the addition of various test samples were assayed on FLIPR.

GPR35 [2] = target: T1, GPR35; test: Changes in intracellular calcium levels on FLIPR, CHO cell line stably co-expressing human GPR35 and Gα16; parameters: expressed in transfected cells
Procedure: The Gα16-stably expressed cell line (Gα16/CHO cell line) as a host cell was prepared by transfecting the Gα16 expression vector (Guthrie cDNA Resource Center) into CHO cells in a conventional manner and incubating at 37° C. under 5% CO2 in αMEM medium (containing nucleic acid; Invitrogen) supplemented with 10% fetal calf serum (Invitrogen), 50 units/ml penicillin/50 ug/ml streptomycin (CAMBREX) and 1 mg/ml geneticin (Invitrogen). The cells that were incubated for 2 days in αMEM medium (containing nucleic acid) supplemented only with 10% fetal calf serum charged in a 75 cm^2 flask were used for the transfection. The transfection was carried out using Lipofectamine reagent (Invitrogen) by a modification of the protocol attached to the reagent. First, 2 centrifuge tubes each having a 15 ml volume were prepared and 600 μl each of Opti-MEM medium (Invitrogen) was dispensed in each tube. Next, 4.8 μg of the expression vector was charged in one tube and in another tube 36 μl of Lipofectamine reagent was charged, which were mixed together. The mixture was settled for 20 minutes at room temperature. […] The cells obtained were counted and diluted with αMEM medium (containing no nucleic acid; Invitrogen) supplemented only with 10% dialyzed fetal calf serum to have 0.3, 1.5 and 7.5 cells per 100 μl of the medium. […]

mouse GPR35 = target: T2, mouse GPR35 (Mus musculus, UniProt Q9ES90, D300Y/S286F); test: Reactivity on FLIPR, CHO-K1 cells transfected with mouse GPR35 expression vector
T2 construct: the digestion product was inserted into plasmid vector pAKKO-111H; expressed in transfected cells; host or cells: CHO-K1 cells
T2 sequence (Q9ES90 whole entry S286F/D300Y): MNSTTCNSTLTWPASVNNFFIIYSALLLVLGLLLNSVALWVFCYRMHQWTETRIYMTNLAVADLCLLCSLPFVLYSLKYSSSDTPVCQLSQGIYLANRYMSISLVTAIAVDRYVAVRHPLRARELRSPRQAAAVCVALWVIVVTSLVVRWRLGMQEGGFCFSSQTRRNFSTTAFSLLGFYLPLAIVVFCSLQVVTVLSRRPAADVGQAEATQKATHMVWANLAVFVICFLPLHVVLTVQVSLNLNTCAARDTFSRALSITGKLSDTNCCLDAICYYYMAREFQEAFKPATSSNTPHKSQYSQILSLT
Procedure: The CHO-K1 cell line (purchased from ATCC) was incubated in HAM F-12 medium (Invitrogen) supplemented with 10% fetal calf serum, unless otherwise indicated. On the day before transfection, the cells were inoculated at 4.5×10^5/10 cm^2 and incubated at 37° C. for 15 hours or more in a CO2 incubator adjusted to 5% CO2 concentration. Using Lipofectamine reagent (Invitrogen), transfection was performed according to modifications of the procedure attached to the reagent. When a 6-well plate was used as the incubator, the transfection was performed as follows. Two tubes each having a 1.5 ml volume were prepared and 100 μl each of Opti-MEM medium (Invitrogen) was dispensed in each tube. […] The cells obtained were counted and diluted to 5×10^4 cells per 100 μl of the medium. […]
To assay the changes in intracellular calcium levels on FLIPR, the following pretreatment was made. First, an assay buffer was prepared to add fluorescence dye Fluo-3AM (DOJIN) to the cells, or to wash the cells immediately before the FLIPR assay. […] After mixing them, the mixture was added to 10.6 ml of an assay buffer supplemented with 105 μl of fetal calf serum to give a fluorescence dye solution. […]

O=C1N=c2cc([N+](=O)[O-])cc([N+](=O)[O-])c2=NC1=O [5,7-dinitroquinoxaline-2,3-dione]
response (increased intracellular calcium levels) in control cells (control CHO-K1 cells): not observed
response (increased intracellular calcium levels) (GPR35 [1]): dose-dependently responded (increased intracellular calcium levels)

N#Cc1cc2c(cc1[N+](=O)[O-])=NC(=O)C(=O)N=2 [6-cyano-7-nitroquinoxaline-2,3-dione]
response (increased intracellular calcium levels) in control cells (control CHO-K1 cells): not observed
response (increased intracellular calcium levels) (GPR35 [1]): dose-dependently responded (increased intracellular calcium levels)

O=c1oc2c(O)c(O)cc3c(=O)oc4c(O)c(O)cc1c4c23 [ellagic acid]
response (increased intracellular calcium levels) in control cells (control CHO-K1 cells): not observed
intracellular calcium levels (GPR35 [2]): increased
response (increased intracellular calcium levels) (GPR35 [1]): dose-dependently responded (increased intracellular calcium levels)
reactivity of mouse GPR35 (FLIPR) (mouse GPR35): responsive
